According to ChEMBL document CHEMBL1147449, “Synthesis of analogues of a potent antitumor saponin OSW-1” (Bioorg Med Chem Lett, 2004):

Key:
Details in all cases: Homo sapiens
Ishikawa [1] = experiment: Inhibition of the necrosis induced by compound in endometrial cancer ishikawa cell line after 24 hr; assay type: functional, cell-based
Ishikawa [2] = experiment: Cytotoxicity (growth inhibition) against endometrial cancer ishikawa cell line at 10E-5 mol/L after 24 hr; assay type: functional
Ishikawa [3] = experiment: Cytotoxicity (growth inhibition) against endometrial cancer ishikawa cell line at 10E-6 mol/L after 24 hr; assay type: functional
Ishikawa [4] = experiment: Cytotoxicity (growth inhibition) against endometrial cancer ishikawa cell line at 10E-7 mol/L after 24 hr; assay type: functional
Ishikawa [5] = experiment: Cytotoxicity (growth inhibition) against endometrial cancer ishikawa cell line at 10E-8 mol/L after 24 hr; assay type: functional
Ishikawa [6] = experiment: Cytotoxicity (growth inhibition) against endometrial cancer ishikawa cell line at 10E-9 mol/L after 24 hr; assay type: functional
MCF7 [7] = experiment: Cytotoxicity (growth inhibition) against breast cancer MCF-7 cell line at 10E-6 mol/L; assay type: functional
MCF7 [8] = experiment: Cytotoxicity (growth inhibition) against breast cancer MCF-7 cell line at 10E-7 mol/L; assay type: functional
MCF7 [9] = experiment: Cytotoxicity (growth inhibition) against breast cancer MCF-7 cell line at 10E-8 mol/L; assay type: functional
MCF7 [10] = experiment: Cytotoxicity (growth inhibition) against breast cancer MCF-7 cell line at 10E-9 mol/L; assay type: functional
MCF7 [11] = experiment: Inhibition of the necrosis induced by compound in breast cancer MCF-7 cell line; assay type: functional, cell-based
MDA-MB-231 [12] = experiment: Inhibition of the necrosis induced by compound in breast cancer MDAMB-231 cell line; assay type: functional, cell-based
MDA-MB-231 [13] = experiment: Cytotoxicity (growth inhibition) against breast cancer MDAMB-231 cell line at 10E-5 mol/L; assay type: functional
MDA-MB-231 [14] = experiment: Cytotoxicity (growth inhibition) against breast cancer MDAMB-231 cell line at 10E-6 mol/L; assay type: functional
MDA-MB-231 [15] = experiment: Cytotoxicity (growth inhibition) against breast cancer MDAMB-231 cell line at 10E-7 mol/L; assay type: functional
MDA-MB-231 [16] = experiment: Cytotoxicity (growth inhibition) against breast cancer MDAMB-231 cell line at 10E-8 mol/L; assay type: functional
MDA-MB-231 [17] = experiment: Cytotoxicity (growth inhibition) against breast cancer MDAMB-231 cell line at 10E-9 mol/L; assay type: functional
MCF7 [18] = experiment: Cytotoxicity (growth inhibition) against breast cancer MCF-7 cell line at 10E-5 mol/L; assay type: functional

With COc1ccc(C(=O)O[C@H]2[C@H](O[C@@H]3[C@@H](OC(C)=O)[C@H](O[C@H]4C[C@H]5[C@@H]6CC=C7C[C@@H](O)CC[C@]7(C)[C@H]6CC[C@]5(C)[C@@]4(O)[C@H](C)C(=O)CCC(C)C)OC[C@@H]3O)OC[C@@H](O)[C@@H]2O)cc1 as the compound, how does the IC50 (Ishikawa [1]) read?
The IC50 was 3000 nM.

And the inhibition at 10 µM (Ishikawa [2])?
The inhibition at 10 µM was 100%.

What about the inhibition at 1 µM (Ishikawa [3]) of the same compound?
The inhibition at 1 µM was 100%.

And the inhibition at 0.1 µM (Ishikawa [4])?
The inhibition at 0.1 µM was 100%.

What about the inhibition at 0.01 µM (Ishikawa [5]) of the same compound?
Its inhibition at 0.01 µM is 100%.

What about the inhibition at 0.001 µM (Ishikawa [6]) of the same compound?
The inhibition at 0.001 µM was 95%.

What about the inhibition at 1 µM (MCF7 [7]) of the same compound?
Its inhibition at 1 µM is 100%.

And the inhibition at 0.1 µM (MCF7 [8])?
The inhibition at 0.1 µM was 100%.

And the inhibition at 0.01 µM (MCF7 [9])?
The inhibition at 0.01 µM was 100%.

What about the inhibition at 0.001 µM (MCF7 [10]) of the same compound?
Its inhibition at 0.001 µM is 87%.

And the IC50 (MCF7 [11])?
Its IC50 is 7000 nM.

And the IC50 (MDA-MB-231 [12])?
The IC50 was 500 nM.

And the inhibition at 10 µM (MDA-MB-231 [13])?
The inhibition at 10 µM was 100%.

What about the inhibition at 1 µM (MDA-MB-231 [14]) of the same compound?
The inhibition at 1 µM was 100%.

What about the inhibition at 0.1 µM (MDA-MB-231 [15]) of the same compound?
Its inhibition at 0.1 µM is 100%.

And the inhibition at 0.01 µM (MDA-MB-231 [16])?
Its inhibition at 0.01 µM is 100%.

And the inhibition at 0.001 µM (MDA-MB-231 [17])?
The inhibition at 0.001 µM was 100%.

And the inhibition at 10 µM (MCF7 [18])?
The inhibition at 10 µM was 100%.
